Laboratory results taken from patent publication US8822467B2 (Ligand Pharmaceuticals Inc., priority 2009, dated 2014).

target: T1, human CRTH2 (Homo sapiens, UniProt Q9Y5Y4); assay: [35S]GTPγS binding assay (SPA) on membranes from CHO-K1 cells stably expressing human CRTH2, stimulated with 60 nM DHK-PGD2; assay type: biochemical; conditions: potency class symbols; Table 2; read-out: CRTH2 hGTPγS IC50
T1 construct: expressed in transfected cells
T1 sequence (Q9Y5Y4 1-395): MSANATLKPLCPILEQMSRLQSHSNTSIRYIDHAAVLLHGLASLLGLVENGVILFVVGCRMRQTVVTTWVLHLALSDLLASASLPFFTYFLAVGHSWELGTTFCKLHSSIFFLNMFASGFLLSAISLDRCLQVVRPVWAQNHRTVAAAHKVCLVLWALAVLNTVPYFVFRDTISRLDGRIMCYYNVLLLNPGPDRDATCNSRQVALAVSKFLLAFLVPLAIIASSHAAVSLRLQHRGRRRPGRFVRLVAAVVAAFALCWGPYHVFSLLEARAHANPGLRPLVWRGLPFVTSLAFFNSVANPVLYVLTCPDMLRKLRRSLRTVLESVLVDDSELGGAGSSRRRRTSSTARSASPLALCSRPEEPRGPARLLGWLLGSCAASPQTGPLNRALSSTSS
How it was run: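 Read-out is scintillation proximity: bound [35S]GTPγS (500 pM, with 10 μM GDP) was counted 4 h after centrifuging a 2 h ambient-temperature incubation. Reactions held 4 μg human CRTH2 CHO-K1 membrane protein, 60 nM DHK-PGD2 agonist and test compounds at increasing concentrations. Buffer: 20 mM HEPES pH 7.4, 10 mM MgCl2, 300 mM NaCl, 0.2% BSA, 1% DMSO.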

With `CN(Cc1ccc(OCC(=O)O)c(-c2cc(F)ccc2F)c1)S(=O)(=O)c1ccc(F)cc1` [Example 118, 2-(2,5-difluorophenyl)-4-((4-fluoro-N-methylphenylsulfonamido)methyl)phenoxyacetic acid] as the compound, how does the IC50 read?
The IC50 was 100 to 1000 nM.

How did the IC50 turn out when `CN(Cc1ccc(OCC(=O)O)c(-c2cncc(C(F)(F)F)c2)c1)S(=O)(=O)c1ccc(F)cc1` [Example 119, 2-(3-trifluoromethyl-5-pyridinyl)-4-((4-fluoro-N-methylphenylsulfonamido)methyl)phenoxyacetic acid] was run?
Its IC50 is 100 to 1000 nM.

Which IC50 does the source give for `CN(Cc1ccc(OCC(=O)O)c(-c2cccc(C(F)(F)F)c2)c1)S(=O)(=O)c1ccc(C#N)cc1` [Example 120, 2-(3-trifluoromethylphenyl)-4-((4-cyano-N-methylphenylsulfonamido)methyl)phenoxyacetic acid] here?
The IC50 was 100 to 1000 nM.

`COc1ccc(S(=O)(=O)N(C)Cc2ccc(OCC(=O)O)c(-c3cccc(C(F)(F)F)c3)c2)cc1` [Example 121, 2-(3-trifluoromethylphenyl)-4-((4-methoxy-N-methylphenylsulfonamido)methyl)phenoxyacetic acid] was tested. Which IC50 did it give?
Its IC50 is 100 to 1000 nM.

Which IC50 does the source give for `CN(Cc1ccc(OCC(=O)O)c(-c2cccc(F)c2F)c1)S(=O)(=O)c1ccc(F)cc1` [Example 122, 2-(2,3-difluorophenyl)-4-((4-fluoro-N-methylphenylsulfonamido)methyl)phenoxyacetic acid] here?
The IC50 was 100 to 1000 nM.

How did the IC50 turn out when `CN(Cc1ccc(OCC(=O)O)c(-c2ccc(S(C)(=O)=O)cc2)c1)S(=O)(=O)c1ccc(F)cc1` [Example 124, 2-(4-methylsulfonylphenyl)-4-((4-fluoro-N-methylphenylsulfonamido)methyl)phenoxyacetic acid] was run?
The IC50 was 100 to 1000 nM.

How did the IC50 turn out when `CN(Cc1ccc(OCC(=O)O)c(-c2cccc(OC(F)(F)F)c2)c1)S(=O)(=O)c1ccc(F)cc1` [Example 125, 2-(3-trifluoromethoxyphenyl)-4-((4-fluoro-N-methylphenylsulfonamido)methyl)phenoxyacetic acid] was run?
Its IC50 is 100 to 1000 nM.

Which IC50 does the source give for `CN(Cc1ccc(OCC(=O)O)c(-c2cccc(C(F)(F)F)c2)c1)S(=O)(=O)c1cccc(F)c1` [Example 126, 2-(3-trifluoromethylphenyl)-4-((3-fluoro-N-methylphenylsulfonamido)methyl)phenoxyacetic acid] here?
The IC50 was 100 to 1000 nM.

Which IC50 does the source give for `CN(Cc1ccc(OCC(=O)O)c(-c2cccc(C(F)(F)F)n2)c1)S(=O)(=O)c1ccc(F)cc1` [Example 127, 2-(6-trifluoromethyl-2-pyridinyl)-4-((4-fluoro-N-methylphenylsulfonamido)methyl)phenoxyacetic acid] here?
The IC50 was 100 to 1000 nM.

`CN(Cc1ccc(OCC(=O)O)c(-c2ccn3ccnc3c2)c1)S(=O)(=O)c1ccc(F)cc1` [Example 128, 2-(imidazo[1,2-a]pyridin-7-yl)-4-((4-fluoro-N-methylphenylsulfonamido)methyl)phenoxyacetic acid] was tested. Which IC50 did it give?
The IC50 was 100 to 1000 nM.

For `Cc1nnc(-c2cccc(-c3cc(CN(C)S(=O)(=O)c4ccc(F)cc4)ccc3OCC(=O)O)c2)o1` [Example 129, 2-(3-(5-methyl-1,3,4-oxadiazol-2-yl)phenyl)-4-((4-fluoro-N-methylphenylsulfonamido)methyl)phenoxyacetic acid], which IC50 is on record?
Its IC50 is 100 to 1000 nM.

With `CN(Cc1ccc(OCC(=O)O)c(-c2cccc(F)c2)c1)S(=O)(=O)c1ccc(F)cc1` [Example 130, 2-(3-fluorophenyl)-4-((4-fluoro-N-methylphenylsulfonamido)methyl)phenoxyacetic acid] as the compound, how does the IC50 read?
The IC50 was 100 to 1000 nM.

Which IC50 does the source give for `CN(Cc1ccc(OCC(=O)O)c(-c2cccc(C(F)(F)F)c2)c1)S(=O)(=O)c1ccccc1` [Example 131, 2-(3-trifluoromethylphenyl)-4-((N-methylphenylsulfonamido)methyl)phenoxyacetic acid] here?
The IC50 was 100 to 1000 nM.

Which IC50 does the source give for `CN(Cc1ccc(OCC(=O)O)c(-c2cccc(O)c2)c1)S(=O)(=O)c1ccc(F)cc1` [Example 132, 2-(3-hydroxyphenyl)-4-((4-fluoro-N-methylphenylsulfonamido)methyl)phenoxyacetic acid] here?
The IC50 was 100 to 1000 nM.

`COc1cccc(-c2cc(CN(C)S(=O)(=O)c3ccc(F)cc3)ccc2OCC(=O)O)c1` [Example 133, 2-(3-methoxyphenyl)-4-((4-fluoro-N-methylphenylsulfonamido)methyl)phenoxyacetic acid] was tested. Which IC50 did it give?
The IC50 was 100 to 1000 nM.

Which IC50 does the source give for `CN(Cc1ccc(OCC(=O)O)c(-c2cccc(C(F)(F)F)c2)c1)S(=O)(=O)c1ccc(S(C)(=O)=O)cc1` [Example 134, 2-(3-trifluoromethylphenyl)-4-((4-methylsulfonyl-N-methylphenylsulfonamido)methyl)phenoxyacetic acid] here?
Its IC50 is 100 to 1000 nM.

Which IC50 does the source give for `CNC(=O)c1cccc(-c2cc(CN(C)S(=O)(=O)c3ccc(F)cc3)ccc2OCC(=O)O)c1` [Example 135, 2-(3-N-methylaminocarbonylphenyl)-4-((4-fluoro-N-methylphenylsulfonamido)methyl)phenoxyacetic acid] here?
The IC50 was 100 to 1000 nM.

For `CN(Cc1cc(F)c(OCC(=O)O)c(-c2cccc(C#N)c2)c1)S(=O)(=O)c1ccc(F)cc1` [Example 136, 2-(3-cyanophenyl)-4-((4-fluoro-N-methylphenylsulfonamido)methyl)-6-fluorophenoxyacetic acid], which IC50 is on record?
Its IC50 is 100 to 1000 nM.

For `CN(Cc1ccc(OCC(=O)O)c(-c2cccc(C(F)(F)F)c2)c1)S(=O)(=O)c1cc(F)cc(F)c1` [Example 137, 2-(3-trifluoromethylphenyl)-4-((3,5-difluoro-N-methylphenylsulfonamido)methyl)phenoxyacetic acid], which IC50 is on record?
Its IC50 is 100 to 1000 nM.

How did the IC50 turn out when `CN(C)C(=O)c1cccc(-c2cc(CN(C)S(=O)(=O)c3ccc(F)cc3)ccc2OCC(=O)O)c1` [Example 138, 2-(3-dimethylaminocarbonylphenyl)-4-((4-fluoro-N-methylphenylsulfonamido)methyl)phenoxyacetic acid] was run?
Its IC50 is 100 to 1000 nM.

With `CN(Cc1cc(F)c(OCC(=O)O)c(-c2cc(F)cc(F)c2)c1)S(=O)(=O)c1ccc(F)cc1` [Example 139, 2-(3,5-difluorophenyl)-4-((4-fluoro-N-methylphenylsulfonamido)methyl)-6-fluorophenoxyacetic acid] as the compound, how does the IC50 read?
The IC50 was 100 to 1000 nM.

For `CCN(Cc1ccc(OCC(=O)O)c(-c2cccc(C(F)(F)F)c2)c1)S(=O)(=O)c1ccc(F)cc1` [Example 140, 2-(3-trifluoromethylphenyl)-4-((4-fluoro-N-ethylphenylsulfonamido)methyl)phenoxyacetic acid], which IC50 is on record?
The IC50 was 100 to 1000 nM.

For `COC(=O)c1cccc(-c2cc(CN(C)S(=O)(=O)c3ccc(F)cc3)ccc2OCC(=O)O)c1` [Example 141, 2-(3-methoxycarbonylphenyl)-4-((4-fluoro-N-methylphenylsulfonamido)methyl)phenoxyacetic acid], which IC50 is on record?
Its IC50 is 100 to 1000 nM.

Which IC50 does the source give for `CN(Cc1ccc(OCC(=O)O)c(-c2cccc(Br)c2)c1)S(=O)(=O)c1ccc(F)cc1` [Example 142, 2-(3-bromophenyl)-4-((4-fluoro-N-methylphenylsulfonamido)methyl)phenoxyacetic acid] here?
The IC50 was 100 to 1000 nM.

`CN(Cc1ccc(OCC(=O)O)c(-c2cccc(C(F)(F)F)c2)c1)S(=O)(=O)c1cccc2cccnc12` [Example 143, 2-(3-trifluoromethylphenyl)-4-((N-methylquinoline-8-sulfonamido)methyl)phenoxyacetic acid] was tested. Which IC50 did it give?
The IC50 was 100 to 1000 nM.

With `CN(Cc1ccc(OCC(=O)O)c(-c2ccc(F)c(F)c2)c1)S(=O)(=O)c1ccc(F)cc1` [Example 144, 2-(3,4-difluorophenyl)-4-((4-fluoro-N-methylphenylsulfonamido)methyl)phenoxyacetic acid] as the compound, how does the IC50 read?
Its IC50 is 100 to 1000 nM.

Which IC50 does the source give for `CN(Cc1ccc(OCC(=O)O)c(-c2cccc(C(F)(F)F)c2)c1)S(=O)(=O)c1cccc2ccccc12` [Example 145, 2-(3-trifluoromethylphenyl)-4-((N-methylnaphthalene-1-sulfonamido)methyl)phenoxyacetic acid] here?
The IC50 was 100 to 1000 nM.

For `COc1ccccc1S(=O)(=O)N(C)Cc1ccc(OCC(=O)O)c(-c2cccc(C(F)(F)F)c2)c1` [Example 146, 2-(3-trifluoromethylphenyl)-4-((2-methoxy-N-methylphenylsulfonamido)methyl)phenoxyacetic acid], which IC50 is on record?
The IC50 was 100 to 1000 nM.

Which IC50 does the source give for `CN(Cc1ccc(OCC(=O)O)c(-c2cccnc2)c1)S(=O)(=O)c1ccc(F)cc1` [Example 147, 2-(3-pyridinyl)-4-((4-fluoro-N-methylphenylsulfonamido)methyl)phenoxyacetic acid] here?
The IC50 was 100 to 1000 nM.

With `CN(Cc1ccc(OCC(=O)O)c(-c2cccc(C(F)(F)F)c2)c1)S(=O)(=O)c1ccc2ccccc2c1` [Example 148, 2-(3-trifluoromethylphenyl)-4-((N-methylnaphthalene-2-sulfonamido)methyl)phenoxyacetic acid] as the compound, how does the IC50 read?
The IC50 was 100 to 1000 nM.

How did the IC50 turn out when `CN(Cc1ccc(OCC(=O)O)c(-c2cccc(C(F)(F)F)c2)c1)S(=O)(=O)c1cccnc1` [Example 149, 2-(3-trifluoromethylphenyl)-4-((N-methylpyridine-3-sulfonamido)methyl)phenoxyacetic acid] was run?
The IC50 was 100 to 1000 nM.

How did the IC50 turn out when `CN(Cc1ccc(OCC(=O)O)c(-c2cc(F)cc(Cl)c2)c1)S(=O)(=O)c1ccccc1` [Example 150, 2-(3-chloro-5-fluorophenyl)-4-((-N-methylphenylsulfonamido)methyl)phenoxyacetic acid] was run?
The IC50 was 100 to 1000 nM.

Which IC50 does the source give for `COc1cccc(-c2cc(CN(C)S(=O)(=O)c3ccccc3)ccc2OCC(=O)O)c1` [Example 151, 2-(3-methoxyphenyl)-4-((-N-methylphenylsulfonamido)methyl)phenoxyacetic acid] here?
Its IC50 is 1000 to 10000 nM.
